This note sets out measurements from patent US8389513B2, “2-amino-5,5-difluoro-5,6-dihydro-4H-[1,3]oxazin-4-yl)-phenyl]-amides” (Hoffmann-La Roche Inc., priority 2009, dated 2013).

The target in data set [1] is T1, BACE1 (Homo sapiens, UniProt P56817).
T1 construct: Human HEK293 cells which are stably transfected with a vector expressing a cDNA of the human APP wt gene (APP695); endogenous in cells; host or cells: HEK293 stably transfected with human APP695 wt
Kind of data set: Cellular Aβ-lowering assay (Aβ40 ELISA). Conditions: HEK293 cells stably expressing human APP695; Aβ40 in culture supernatant; read-out: BACE1 cell act. Aβ40 IC50. The class given is cell-based. In short, it runs like this: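 Aβ40 in supernatant measured by sandwich ELISA (TMB, 450 nm) and quantified against a pure Aβ peptide standard curve.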
(In general: An ELISA detects its analyte on a solid surface through an enzyme-linked reagent.)

Data set [2] concerns the target P-gP (Homo sapiens, UniProt P08183). Kind of data set: P-gP human efflux ratio. In kind it is in vitro ADME. Details: key: A = not or weak substrate.
Data set [3] addresses T2, BACE2 (Rattus norvegicus, UniProt Q6IE75).
T2 construct: endogenous cellular BACE2 in the Ins1e rat cell line; endogenous in cells; host or cells: INS-TMEM27 (INS1e-derived rat cell line with TetOn-inducible full-length hTMEM27)
T2 sequence (Q6IE75 63-514): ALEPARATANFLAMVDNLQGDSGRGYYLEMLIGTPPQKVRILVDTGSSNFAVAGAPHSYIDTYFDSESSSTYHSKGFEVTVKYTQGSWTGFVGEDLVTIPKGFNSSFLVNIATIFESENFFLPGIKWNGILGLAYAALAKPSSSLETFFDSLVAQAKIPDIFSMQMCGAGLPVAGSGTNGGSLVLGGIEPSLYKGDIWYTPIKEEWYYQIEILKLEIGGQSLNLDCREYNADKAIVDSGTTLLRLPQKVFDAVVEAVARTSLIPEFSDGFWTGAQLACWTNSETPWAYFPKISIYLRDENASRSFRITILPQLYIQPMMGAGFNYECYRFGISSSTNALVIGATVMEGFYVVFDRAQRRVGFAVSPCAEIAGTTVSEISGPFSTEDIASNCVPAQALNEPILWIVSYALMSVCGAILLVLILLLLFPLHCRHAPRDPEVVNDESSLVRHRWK
Kind of data set: Assay for BACE inhibition by measuring cellular TMEM27 cleavage. In kind it is cell-based. Conditions: INS-TMEM27 cells (INS1e-derived); shed TMEM27 by ELISA; read-out: BACE2 cell act. IC50. In short, it runs like this: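 Ins1e-derived INS-TMEM27 rat cells with doxycycline-inducible full-length human TMEM27; inhibitor added 2 h before doxycycline (500 ng/ml final), then 46 h at 37 °C. Shed TMEM27 in supernatant quantified by sandwich ELISA with anti-human-TMEM27 antibodies; EC50 from curve fit across inhibitor concentrations.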

Data set [4] in a line: GSH human adduct formation in vitro. In kind it is in vitro ADME. Details: key: NF = in vitro no significant adduct formation relative to control. As to conditions: relative to control.
In data set [5] the target is T3, hERG channel (Homo sapiens, UniProt Q12809).
T3 construct: expressed in transfected cells; host or cells: CHO
T3 sequence (Q12809 whole entry): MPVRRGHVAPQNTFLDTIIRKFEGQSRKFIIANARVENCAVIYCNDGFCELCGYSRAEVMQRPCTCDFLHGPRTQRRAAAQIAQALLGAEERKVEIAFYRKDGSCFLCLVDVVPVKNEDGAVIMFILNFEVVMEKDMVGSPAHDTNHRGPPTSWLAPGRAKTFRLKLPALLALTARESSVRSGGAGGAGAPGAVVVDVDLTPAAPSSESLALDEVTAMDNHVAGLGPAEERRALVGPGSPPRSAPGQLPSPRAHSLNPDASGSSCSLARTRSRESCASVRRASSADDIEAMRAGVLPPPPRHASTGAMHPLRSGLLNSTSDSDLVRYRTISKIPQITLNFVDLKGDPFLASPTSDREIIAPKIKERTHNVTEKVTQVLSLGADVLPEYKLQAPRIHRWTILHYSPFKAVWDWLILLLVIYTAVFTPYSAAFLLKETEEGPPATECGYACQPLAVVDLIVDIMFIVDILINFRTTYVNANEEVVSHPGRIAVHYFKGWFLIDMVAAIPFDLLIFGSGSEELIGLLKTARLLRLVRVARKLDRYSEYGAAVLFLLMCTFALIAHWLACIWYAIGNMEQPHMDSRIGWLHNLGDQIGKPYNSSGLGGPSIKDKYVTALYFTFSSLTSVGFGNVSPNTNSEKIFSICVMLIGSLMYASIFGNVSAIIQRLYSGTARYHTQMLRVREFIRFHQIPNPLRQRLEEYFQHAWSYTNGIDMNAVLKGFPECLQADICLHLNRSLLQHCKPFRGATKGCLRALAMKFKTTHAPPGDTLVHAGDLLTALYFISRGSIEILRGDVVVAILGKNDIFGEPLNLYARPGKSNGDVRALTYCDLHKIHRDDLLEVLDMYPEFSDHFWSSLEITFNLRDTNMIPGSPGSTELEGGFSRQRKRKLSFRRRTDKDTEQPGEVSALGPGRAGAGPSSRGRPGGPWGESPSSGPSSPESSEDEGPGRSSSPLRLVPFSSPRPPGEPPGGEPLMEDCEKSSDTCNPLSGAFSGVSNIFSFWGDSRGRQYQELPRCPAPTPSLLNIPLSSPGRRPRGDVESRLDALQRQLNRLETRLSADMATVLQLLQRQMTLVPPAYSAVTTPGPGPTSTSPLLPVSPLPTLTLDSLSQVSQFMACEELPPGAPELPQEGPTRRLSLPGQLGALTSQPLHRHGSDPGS
Kind of data set: PatchXpress hERG inhibition assay. In kind it is cell-based. Conditions: % inhibition @ 1 μM. The source says: PatchXpress hERG Inhibition Assay
For patch clamp electrophysiology, the external buffer contained (in mM): 150 NaCl, 10 Hepes, 4 KCl, 1.2 CaCl2, 1 MgCl2, pH 7.4 adjusted with […] and the internal recording solution contained (in mM): 140 KCl, 6 EGTA, 5 Hepes, MgCl2, 5 ATP-Na2, pH 7.2 adjusted with KOH. Once the cell was loaded in the recording chamber and formed a giga ohm seal with the planar glass electrodes (Sealchip™), a whole-cell configuration was achieved by rupturing the cell membrane. The membrane potential was then clamped at −80 mV and the hERG channel activated by a 1-second depolarizing pulse delivered at 0.1 Hz, the hERG current was measured during the 500 ms-repolarizing pulse to −40 mV. […] The inhibition of hERG current at each concentration was normalized to that recorded in the vehicle control, and fitted with Hill equation to calculate IC20 and/or IC50.
For orientation: The hERG channel carries a current that helps repolarise heart muscle cells.

Chain of P-gP (P08183 whole entry): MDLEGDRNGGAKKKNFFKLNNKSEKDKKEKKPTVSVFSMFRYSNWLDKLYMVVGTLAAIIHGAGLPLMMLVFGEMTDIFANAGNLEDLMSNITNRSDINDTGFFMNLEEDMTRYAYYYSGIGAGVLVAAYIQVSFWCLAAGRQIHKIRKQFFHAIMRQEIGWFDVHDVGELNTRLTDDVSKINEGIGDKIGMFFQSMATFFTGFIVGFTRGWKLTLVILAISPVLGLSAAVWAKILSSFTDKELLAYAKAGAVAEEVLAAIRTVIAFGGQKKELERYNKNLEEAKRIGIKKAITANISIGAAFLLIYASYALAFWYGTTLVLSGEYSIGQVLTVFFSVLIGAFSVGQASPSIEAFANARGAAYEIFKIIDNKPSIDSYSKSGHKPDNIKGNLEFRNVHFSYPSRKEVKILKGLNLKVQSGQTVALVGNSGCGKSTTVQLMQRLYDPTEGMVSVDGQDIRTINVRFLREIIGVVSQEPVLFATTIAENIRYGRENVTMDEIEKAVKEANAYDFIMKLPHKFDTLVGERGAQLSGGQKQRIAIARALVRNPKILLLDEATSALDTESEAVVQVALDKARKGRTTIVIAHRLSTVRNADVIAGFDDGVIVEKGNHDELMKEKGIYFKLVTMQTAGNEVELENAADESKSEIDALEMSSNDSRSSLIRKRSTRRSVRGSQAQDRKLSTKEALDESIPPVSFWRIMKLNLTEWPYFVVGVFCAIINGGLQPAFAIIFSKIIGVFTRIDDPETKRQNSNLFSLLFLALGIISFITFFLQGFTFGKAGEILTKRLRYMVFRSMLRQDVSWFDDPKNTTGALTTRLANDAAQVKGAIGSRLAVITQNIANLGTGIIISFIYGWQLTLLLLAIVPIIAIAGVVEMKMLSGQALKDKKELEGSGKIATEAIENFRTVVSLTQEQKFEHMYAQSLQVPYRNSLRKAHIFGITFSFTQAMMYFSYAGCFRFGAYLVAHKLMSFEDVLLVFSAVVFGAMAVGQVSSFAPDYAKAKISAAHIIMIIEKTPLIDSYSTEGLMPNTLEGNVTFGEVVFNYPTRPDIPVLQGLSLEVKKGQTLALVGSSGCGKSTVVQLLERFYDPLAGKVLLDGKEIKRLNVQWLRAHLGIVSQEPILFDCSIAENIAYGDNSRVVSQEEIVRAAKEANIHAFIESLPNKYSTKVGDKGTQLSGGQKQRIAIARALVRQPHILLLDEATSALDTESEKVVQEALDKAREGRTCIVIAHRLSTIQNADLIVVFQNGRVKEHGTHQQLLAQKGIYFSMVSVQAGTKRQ
T1 sequence (P56817 46-501): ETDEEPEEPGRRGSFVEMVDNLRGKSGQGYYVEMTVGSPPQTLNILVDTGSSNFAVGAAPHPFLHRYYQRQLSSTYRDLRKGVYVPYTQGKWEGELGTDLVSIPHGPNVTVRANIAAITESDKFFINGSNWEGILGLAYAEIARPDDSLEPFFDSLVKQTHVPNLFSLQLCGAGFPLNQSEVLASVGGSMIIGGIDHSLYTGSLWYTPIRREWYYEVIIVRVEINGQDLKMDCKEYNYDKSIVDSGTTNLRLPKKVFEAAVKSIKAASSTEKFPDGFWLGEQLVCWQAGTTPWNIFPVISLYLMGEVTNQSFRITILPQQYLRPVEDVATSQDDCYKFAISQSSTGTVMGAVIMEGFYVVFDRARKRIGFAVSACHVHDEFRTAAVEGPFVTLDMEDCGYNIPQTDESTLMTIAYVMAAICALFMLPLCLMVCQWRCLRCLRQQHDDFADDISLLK

As to `C[C@]1(c2cc(NC(=O)c3ncc(C(F)(F)F)cc3Cl)ccc2F)N=C(N)OCC1(F)F` [Example 5, 3-Chloro-5-trifluoromethyl-pyridine-2-carboxylic acid [3-((R)-2-amino-5,5-difluoro-4-methyl-5,6-dihydro-4H-[1,3]oxazin-4-yl)-4-fluoro-phenyl]-amide], the figures for the IC50 in data set [1] and in data set [3] were 43 nM and 15 nM, respectively. For the same molecule, the “P-gP human, efflux ratio: substrate category” value (from here on “P-gP human, efflux ratio”) in data set [2] is reported as “A”. In data set [4], the “GSH human, adduct formation” value is on record as “NF”. Further, in data set [5], the hERG entry is reported as “A (A = less than 26% inhibition @ 1 μM)”.
As to `CC1(C)OC(N)=N[C@](C)(c2cc(NC(=O)c3ncc(C(F)(F)F)cc3Cl)ccc2F)C1(F)F` [Example 20, 3-Chloro-5-trifluoromethyl-pyridine-2-carboxylic acid [3-((R)-2-amino-5,5-difluoro-4,6,6-trimethyl-5,6-dihydro-4H-[1,3]oxazin-4-yl)-4-fluoro-phenyl]-amide], the IC50 (commonly the point on the concentration scale where inhibition reaches its midpoint) in data set [1] is 50 nM; in data set [3], 1270 nM. For the same molecule, the “P-gP human, efflux ratio” value in data set [2] is recorded as “A”. In addition, the hERG result in data set [5] is on record as “A (A = less than 26% inhibition @ 1 μM)”.
Take `C[C@]1(c2cc(NC(=O)c3ncc(Cl)cc3Cl)ccc2F)N=C(N)OCC1(F)F` [Example 8, 3,5-Dichloro-pyridine-2-carboxylic acid [3-((R)-2-amino-5,5-difluoro-4-methyl-5,6-dihydro-4H-[1,3]oxazin-4-yl)-4-fluoro-phenyl]-amide]: the IC50 in data set [1] was found to be 15 nM; in data set [3] it was 71 nM. In addition, the hERG entry in data set [5] is “A (A = less than 26% inhibition @ 1 μM)”.
`C[C@]1(c2cc(NC(=O)c3ccc(Cl)cn3)ccc2F)N=C(N)OCC1(F)F` [Example 1, 5-Chloro-pyridine-2-carboxylic acid [3-((R)-2-amino-5,5-difluoro-4-methyl-5,6-dihydro-4H-[1,3]oxazin-4-yl)-4-fluoro-phenyl]-amide]: the IC50 in data set [3] came out at 35 nM. Also, the hERG entry in data set [5] is on record as “A (A = less than 26% inhibition @ 1 μM)”.
Turning to `CC1(C)OC(N)=N[C@](C)(c2cc(NC(=O)c3ncc(C#N)cc3Cl)ccc2F)C1(F)F` [Example 22, 3-Chloro-5-cyano-pyridine-2-carboxylic acid [3-((R)-2-amino-5,5-difluoro-4,6,6-trimethyl-5,6-dihydro-4H-[1,3]oxazin-4-yl)-4-fluoro-phenyl]-amide], the values for the IC50 in data set [1] and in data set [3] were 7 nM and 175 nM, respectively.
On to `C[C@]1(c2cc(NC(=O)c3ncc(C#N)cc3Cl)ccc2F)N=C(N)OCC1(F)F` [Example 39, 3-Chloro-5-cyano-pyridine-2-carboxylic acid [3-((R)-2-amino-5,5-difluoro-4-methyl-5,6-dihydro-4H-[1,3]oxazin-4-yl)-4-fluoro-phenyl]-amide], for which, in data set [3], the IC50 came to 224 nM.
For `CC1(C)OC(N)=N[C@](C)(c2cc(NC(=O)c3ccc(C#N)cn3)ccc2F)C1(F)F` [Example 21, 5-Cyano-pyridine-2-carboxylic acid [3-((R)-2-amino-5,5-difluoro-4,6,6-trimethyl-5,6-dihydro-4H-[1,3]oxazin-4-yl)-4-fluoro-phenyl]-amide], the IC50 stood at 7 nM in data set [1] and 210 nM in data set [3]. Further, the “P-gP human, efflux ratio” value in data set [2] is “A”.
